Patent US9556199B2, “Thieno[3,2-d]pyrimidines derivatives for the treatment of viral infections” (Janssen Sciences Ireland UC, priority 2013, dated 2017)

Tests used:
Assay type in all cases: cell-based
human TLR8 = molecular target: T1, human TLR8 (Homo sapiens, UniProt Q9NR97); assay: TLR8 cellular NFκB-luc reporter assay in transiently transfected HEK293 cells; details: lowest effective concentration, 6 hours incubation
T1 construct: expressed in transfected cells; host or cells: HEK293
T1 sequence (Q9NR97 27-1041): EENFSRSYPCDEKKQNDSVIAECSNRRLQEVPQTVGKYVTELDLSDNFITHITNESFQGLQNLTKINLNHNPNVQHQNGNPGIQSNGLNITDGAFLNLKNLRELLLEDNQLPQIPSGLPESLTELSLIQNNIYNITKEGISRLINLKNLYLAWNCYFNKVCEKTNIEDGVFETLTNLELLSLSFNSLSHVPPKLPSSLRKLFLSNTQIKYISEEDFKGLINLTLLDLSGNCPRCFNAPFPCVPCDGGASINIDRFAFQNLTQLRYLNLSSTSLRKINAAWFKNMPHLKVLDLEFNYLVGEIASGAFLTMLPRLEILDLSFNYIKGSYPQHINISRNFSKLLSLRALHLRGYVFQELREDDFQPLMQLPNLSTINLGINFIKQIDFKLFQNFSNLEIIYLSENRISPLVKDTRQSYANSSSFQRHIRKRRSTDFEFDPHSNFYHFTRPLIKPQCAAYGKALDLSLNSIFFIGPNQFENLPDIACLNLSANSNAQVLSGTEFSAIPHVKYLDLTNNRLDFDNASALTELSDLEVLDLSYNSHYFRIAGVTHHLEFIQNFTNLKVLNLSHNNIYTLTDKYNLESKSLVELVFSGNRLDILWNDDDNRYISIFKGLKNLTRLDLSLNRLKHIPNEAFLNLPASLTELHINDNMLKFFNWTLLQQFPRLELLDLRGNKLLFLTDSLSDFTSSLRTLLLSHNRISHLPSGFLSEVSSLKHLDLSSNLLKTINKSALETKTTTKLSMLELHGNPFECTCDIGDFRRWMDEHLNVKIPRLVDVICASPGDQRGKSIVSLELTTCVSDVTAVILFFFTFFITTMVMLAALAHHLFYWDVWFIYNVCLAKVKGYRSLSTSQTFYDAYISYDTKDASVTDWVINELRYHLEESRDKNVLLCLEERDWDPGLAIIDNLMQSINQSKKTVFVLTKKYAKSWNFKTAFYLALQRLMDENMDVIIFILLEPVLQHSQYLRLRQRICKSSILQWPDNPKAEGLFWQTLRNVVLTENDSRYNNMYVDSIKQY
Protocol: (§1) The ability of compounds to activate human TLR7 and/or TLR8 was assessed in a cellular reporter assay using HEK293 cells transiently transfected with a TLR7 or TLR8 expression vector and NFκB-luc reporter construct.
(§2) Briefly, HEK293 cells were grown in culture medium (DMEM supplemented with 10% FCS and 2 mM Glutamine). For transfection of cells in 15 cm dishes, cells were detached with Trypsin-EDTA, transfected with a mix of CMV-TLR7 or TLR8 plasmid (1700 ng), NFκB-luc plasmid (850 ng) and a transfection reagent and incubated for 48 h at 37° C. in a humidified 5% CO2 atmosphere. Transfected cells were then washed in PBS, detached with Trypsin-EDTA and resuspended in medium to a density of 1.25×10^5 cells/mL. Forty microliters of cells were then dispensed into each well in 384-well plates, where 200 nL of compound in 100% DMSO was already present. Following 6 hours incubation at 37° C., 5% CO2, the luciferase activity was determined by adding 15 μL of Steady Lite Plus substrate (Perkin Elmer) to each well and readout performed on a ViewLux ultraHTS microplate imager (Perkin Elmer). Dose response curves were generated from measurements performed in quadruplicates. Lowest effective concentrations (LEC) values, defined as the concentration that induces an effect which is at least two fold above the standard deviation of the assay, were determined for each compound.

[1] = tested on: interferon-stimulated responsive elements (ISRE); assay: Activation of ISRE promoter elements in HEK-ISREluc cells by conditioned media from compound-treated PBMC; details: lowest effective concentration applied to PBMCs, supernatant transferred to HEK-ISREluc cells, 24 hours, read-out: HEK-ISRE luc (LEC)
Protocol: The potential of compounds to induce IFN-I was also evaluated by measuring the activation of interferon-stimulated responsive elements (ISRE) by conditioned media from PBMC. The ISRE element of sequence GAAACTGAAACT (SEQ ID NO: 1) is highly responsive to the STAT1-STAT2-IRF9 transcription factor, activated upon binding of IFN-I to their receptor IFNAR (Clontech, PT3372-5W). The plasmid pISRE-Luc from Clontech (ref. 631913) contains 5 copies of this ISRE element, followed by the firefly luciferase ORF. A HEK293 cell line stably transfected with pISRE-Luc (HEK-ISREluc) was established to profile the conditioned PBMC cell culture media.
Briefly, PBMCs were prepared from buffy coats of at least two donors using a standard Ficoll centrifugation protocol. Isolated PBMCs were resuspended in RPMI medium supplemented with 10% human AB serum and 2×10^5 cells/well were dispensed into 384-well plates containing compounds (70 μL total volume). After overnight incubation, 10 μL of supernatant was transferred to 384-well plates containing 5×10^3 HEK-ISREIuc cells/well in 30 μL (plated the day before). Following 24 hours of incubation, activation of the ISRE elements was measured by assaying luciferase activity using 40 μL/well Steady Lite Plus substrate (Perkin Elmer) and measured with ViewLux ultraHTS microplate imager (Perkin Elmer). The stimulating activity of each compound on the HEK-ISREluc cells was reported as LEC value, defined as the compound concentration applied to the PBMCs resulting in a luciferase activity at least two fold above the standard deviation of the assay. The LEC in turn indicates the degree of ISRE activation on transfer of a defined amount of PBMC culture medium. Recombinant interferon α-2a (Roferon-A) was used as a standard control compound.

human TLR7 = molecular target: T2, human TLR7 (Homo sapiens, UniProt Q9NYK1); assay: TLR7 cellular NFκB-luc reporter assay in transiently transfected HEK293 cells; details: lowest effective concentration, 6 hours incubation
T2 construct: expressed in transfected cells; host or cells: HEK293
T2 sequence (Q9NYK1 27-1049): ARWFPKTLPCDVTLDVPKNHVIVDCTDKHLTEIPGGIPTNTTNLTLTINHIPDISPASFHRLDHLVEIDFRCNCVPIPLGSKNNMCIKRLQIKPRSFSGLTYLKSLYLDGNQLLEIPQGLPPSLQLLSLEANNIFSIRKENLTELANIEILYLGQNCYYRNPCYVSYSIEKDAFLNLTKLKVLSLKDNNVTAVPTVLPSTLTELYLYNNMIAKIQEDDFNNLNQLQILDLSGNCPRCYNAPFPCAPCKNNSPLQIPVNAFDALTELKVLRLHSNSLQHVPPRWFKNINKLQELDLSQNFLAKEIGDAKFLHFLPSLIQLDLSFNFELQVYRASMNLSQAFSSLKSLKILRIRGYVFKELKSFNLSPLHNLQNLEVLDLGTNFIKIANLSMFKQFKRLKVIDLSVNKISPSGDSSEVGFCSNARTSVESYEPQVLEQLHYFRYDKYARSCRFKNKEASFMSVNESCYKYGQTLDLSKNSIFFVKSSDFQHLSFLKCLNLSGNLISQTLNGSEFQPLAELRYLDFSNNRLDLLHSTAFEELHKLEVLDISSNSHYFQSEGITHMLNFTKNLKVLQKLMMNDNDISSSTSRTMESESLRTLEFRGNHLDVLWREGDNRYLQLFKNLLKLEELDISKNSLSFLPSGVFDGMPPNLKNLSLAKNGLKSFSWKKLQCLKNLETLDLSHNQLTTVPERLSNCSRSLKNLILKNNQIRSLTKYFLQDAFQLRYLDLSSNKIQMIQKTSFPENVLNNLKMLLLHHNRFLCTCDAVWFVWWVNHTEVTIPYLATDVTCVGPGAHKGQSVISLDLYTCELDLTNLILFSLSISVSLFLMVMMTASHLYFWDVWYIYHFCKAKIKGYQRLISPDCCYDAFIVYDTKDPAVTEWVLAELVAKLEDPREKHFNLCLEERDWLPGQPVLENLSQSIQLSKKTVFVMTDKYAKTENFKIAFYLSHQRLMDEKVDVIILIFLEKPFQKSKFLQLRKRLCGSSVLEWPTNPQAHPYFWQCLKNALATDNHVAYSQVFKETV
Protocol: as §1, §2

CCCC[C@H](CO)Nc1nc(N)nc2c(C)csc12 [Compound 18]
Human TLR 8 (LEC) (human TLR8): 0.8 µM
minimal effective concentration [1]: 1.7 µM
Human TLR 7 (LEC) (human TLR7): >25 µM

CCCCNc1nc(N)nc2c(C)csc12 [Compound 2]
Human TLR 8 (LEC) (human TLR8): 1.0 µM
minimal effective concentration [1]: 0.6 µM
Human TLR 7 (LEC) (human TLR7): 2.2 µM

CCCCNc1nc(N)nc2cc(C(C)(C)C)sc12 [Compound 3]
Human TLR 8 (LEC) (human TLR8): 1.2 µM
minimal effective concentration [1]: 0.4 µM
Human TLR 7 (LEC) (human TLR7): 1.2 µM

CCCC[C@@H](CO)Nc1nc(N)nc2c(C)csc12 [Compound 17]
Human TLR 8 (LEC) (human TLR8): 0.3 µM
minimal effective concentration [1]: 0.4 µM
Human TLR 7 (LEC) (human TLR7): 3.7 µM

CCCC[C@@H](CCO)Nc1nc(N)nc2ccsc12 [Compound 8]
Human TLR 8 (LEC) (human TLR8): 0.7 µM
minimal effective concentration [1]: 0.3 µM
Human TLR 7 (LEC) (human TLR7): 1.2 µM

CCC[C@@H](CO)Nc1nc(N)nc2c(C)csc12 [Compound 13]
Human TLR 8 (LEC) (human TLR8): 0.2 µM
minimal effective concentration [1]: 0.6 µM
Human TLR 7 (LEC) (human TLR7): 12 µM

CCCC[C@@H](CCO)Nc1nc(N)nc2c(C)csc12 [Compound 19]
Human TLR 8 (LEC) (human TLR8): 1.6 µM
minimal effective concentration [1]: 0.6 µM
Human TLR 7 (LEC) (human TLR7): 3.9 µM

CCCCCNc1nc(N)nc2c(C)csc12 [Compound 14]
Human TLR 8 (LEC) (human TLR8): 1.9 µM
minimal effective concentration [1]: 3.2 µM
Human TLR 7 (LEC) (human TLR7): 6.8 µM

CCCC[C@H](CO)Nc1nc(N)nc2cc(C)sc12 [Compound 21]
Human TLR 8 (LEC) (human TLR8): 0.6 µM
Human TLR 7 (LEC) (human TLR7): 10.4 µM

CCCC[C@@H](CO)Nc1nc(N)nc2cc(C(C)(C)C)sc12 [Compound 23]
Human TLR 8 (LEC) (human TLR8): 2.6 µM
Human TLR 7 (LEC) (human TLR7): 2.7 µM

CCCC[C@@H](CO)Nc1nc(N)nc2cc(C)sc12 [Compound 22]
Human TLR 8 (LEC) (human TLR8): 0.2 µM
Human TLR 7 (LEC) (human TLR7): 2.9 µM

CCCC(C)Nc1nc(N)nc2cc(C)sc12 (stereo not drawn) [Compound 20]
Human TLR 8 (LEC) (human TLR8): 6.9 µM
minimal effective concentration [1]: 10.1 µM
Human TLR 7 (LEC) (human TLR7): >25 µM

CCC[C@@H](CO)Nc1nc(N)nc2ccsc12 [Compound 5]
Human TLR 8 (LEC) (human TLR8): 0.2 µM
minimal effective concentration [1]: 0.4 µM
Human TLR 7 (LEC) (human TLR7): 2.7 µM

CCC[C@@H](CCO)Nc1nc(N)nc2c(C)csc12 [Compound 16]
Human TLR 8 (LEC) (human TLR8): 1.6 µM
minimal effective concentration [1]: 0.7 µM
Human TLR 7 (LEC) (human TLR7): 5.2 µM

CCCC[C@H](CO)Nc1nc(N)nc2ccsc12 [Compound 6]
Human TLR 8 (LEC) (human TLR8): 0.5 µM
minimal effective concentration [1]: 0.6 µM
Human TLR 7 (LEC) (human TLR7): >25 µM

CCC[C@H](Nc1nc(N)nc2ccsc12)C(=O)OC [Compound 10]
Human TLR 8 (LEC) (human TLR8): 2.7 µM
minimal effective concentration [1]: 0.8 µM
Human TLR 7 (LEC) (human TLR7): 6.1 µM

CCC[C@H](CO)Nc1nc(N)nc2ccsc12 [Compound 12]
Human TLR 8 (LEC) (human TLR8): 7.2 µM
minimal effective concentration [1]: 21 µM
Human TLR 7 (LEC) (human TLR7): >25 µM

CCCC(C)Nc1nc(N)nc2ccsc12 (stereo not drawn) [Compound 9]
Human TLR 8 (LEC) (human TLR8): 2.5 µM
minimal effective concentration [1]: 3.8 µM
Human TLR 7 (LEC) (human TLR7): 3.3 µM

CCCCNc1nc(N)nc2cc(C)sc12 [Compound 1]
Human TLR 8 (LEC) (human TLR8): 0.5 µM
minimal effective concentration [1]: 0.1 µM
Human TLR 7 (LEC) (human TLR7): 1.0 µM

CCCCNc1nc(N)nc2ccsc12 [Compound 7]
Human TLR 8 (LEC) (human TLR8): 0.7 µM
minimal effective concentration [1]: 0.3 µM
Human TLR 7 (LEC) (human TLR7): 1.1 µM

CCC[C@H](Nc1nc(N)nc2c(C)csc12)C(=O)OC [Compound 15]
Human TLR 8 (LEC) (human TLR8): 3.5 µM
minimal effective concentration [1]: 2.6 µM
Human TLR 7 (LEC) (human TLR7): >25 µM

CCCC[C@@H](CO)Nc1nc(N)nc2ccsc12 [Compound 4]
Human TLR 8 (LEC) (human TLR8): 0.03 µM
minimal effective concentration [1]: 0.04 µM
Human TLR 7 (LEC) (human TLR7): 0.5 µM

CCCCCNc1nc(N)nc2ccsc12 [Compound 11]
Human TLR 8 (LEC) (human TLR8): 3.9 µM
minimal effective concentration [1]: 1.2 µM
Human TLR 7 (LEC) (human TLR7): 2.1 µM
